Experimental data reported in US10414811B2, “Protease-resistant lipidated GLP-1 analogs” (MEDIMMUNE LIMITED, priority 2015, dated 2019).
Like-named read-outs stand apart in the source and are kept apart here. Numbered stars: 1 amine (or outer) side, 2 acyl side, 3 side chain; on linkers, the order of the positions; unused ones are H or OH. Square brackets hold non-standard residues; d marks the D form. Side chains are listed from the residue outwards. Peptide text beside a SMILES is read from it. * marks the point of attachment. C18 diacid = O=C(O)CCCCCCCCCCCCCCCCC(=O)*; γGlu = O=C(O)[C@H](CCC(=O)[*:2])N[*:1]; αMeF = C[C@](N)(Cc1ccccc1)C(=O)O; αMeK = C[C@](N)(CCCCN)C(=O)O; αMeS = C[C@](N)(CO)C(=O)O; AEEA = NCCOCCOCC(=O)O; Aib = CC(C)(N)C(=O)O

Experiments:
Assay type in all cases: cell-based
[1] = target: T1, human glucagon receptor (GCGR) (Homo sapiens, UniProt P47871); experiment: cAMP assay, human GCGR cells; details: cAMP assay
T1 construct: expressed in transfected cells
How it was run: (§1)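 Peptide-stimulated cAMP measured by two-step HTRF after a 30 min room-temperature incubation with receptor-expressing cells (hGLP-1R, hGIPR at 1×10^5 cells/ml; hGCGR at 2×10^5 cells/ml). Duplicate dilutions; EC50 from 4-parameter logistic fit of % Delta F.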

[2] = target: T2, human glucose-dependent insulinotropic peptide receptor (GIPR) (Homo sapiens, UniProt P48546); experiment: cAMP assay, human GIPR cells; details: cAMP assay
T2 construct: expressed in transfected cells
T2 sequence (P48546 22-466): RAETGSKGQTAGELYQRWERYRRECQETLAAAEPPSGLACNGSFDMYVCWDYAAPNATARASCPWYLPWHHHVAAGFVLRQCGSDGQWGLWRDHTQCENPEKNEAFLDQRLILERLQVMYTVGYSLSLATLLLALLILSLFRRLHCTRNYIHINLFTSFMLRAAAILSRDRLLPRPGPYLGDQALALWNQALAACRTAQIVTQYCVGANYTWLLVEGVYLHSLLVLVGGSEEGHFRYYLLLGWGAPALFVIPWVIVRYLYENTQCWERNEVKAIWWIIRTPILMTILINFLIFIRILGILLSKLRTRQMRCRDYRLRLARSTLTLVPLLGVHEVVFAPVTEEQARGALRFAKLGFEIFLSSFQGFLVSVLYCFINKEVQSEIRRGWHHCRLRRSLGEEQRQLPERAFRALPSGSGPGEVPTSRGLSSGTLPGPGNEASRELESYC
How it was run: as §1

GLP-1R (INS1e assay) = target: T3, GLP-1R (INS1e assay) (Rattus norvegicus, UniProt P32301); experiment: INS1e assay, cAMP activity at GLP-1R; details: mono-lipidated peptides
T3 construct: endogenous in cells; host or cells: INS-1E cells
T3 sequence (P32301 22-463): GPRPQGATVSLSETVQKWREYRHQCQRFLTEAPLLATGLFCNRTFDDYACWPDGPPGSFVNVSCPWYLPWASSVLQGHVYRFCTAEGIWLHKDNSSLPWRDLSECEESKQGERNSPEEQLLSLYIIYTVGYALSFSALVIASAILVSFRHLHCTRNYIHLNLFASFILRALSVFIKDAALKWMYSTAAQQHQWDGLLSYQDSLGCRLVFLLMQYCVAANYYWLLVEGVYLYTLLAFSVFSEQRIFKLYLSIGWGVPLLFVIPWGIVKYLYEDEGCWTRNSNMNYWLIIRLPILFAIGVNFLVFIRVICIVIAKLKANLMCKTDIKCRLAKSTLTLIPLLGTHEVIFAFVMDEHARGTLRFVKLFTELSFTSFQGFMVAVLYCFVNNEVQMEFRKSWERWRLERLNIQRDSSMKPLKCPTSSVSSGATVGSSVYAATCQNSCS
How it was run: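 cAMP was quantified by two-step HTRF, using anti-cAMP cryptate donor and cAMP-d2 acceptor, each diluted 1/20 in conjugate and lysis buffer. EC50 values of the synthetic peptides were derived from the cAMP readout.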

[3] = target: T4, human GLP-1 receptor (GLP-1R) (Homo sapiens, UniProt P43220); experiment: cAMP assay, human GLP-1R cells
T4 construct: expressed in transfected cells
How it was run: as §1

[4] = first determination (n1), read-out: Primary assay EC50 Gluc-R (n1)
[5] = second determination (n2), read-out: Primary assay EC50 Gluc-R (n2)
[6] = first determination (n1), read-out: Primary assay EC50 GIP-R (n1)
[7] = second determination (n2), read-out: Primary assay EC50 GIP-R (n2)
[8] = mean of n1 and n2, read-out: INS1e assay EC50 Mean pM GLP-1R
[9] = replicate n1, read-out: INS1e assay EC50 GLP-1R n1
[10] = replicate n2, read-out: INS1e assay EC50 GLP-1R n2
[11] = cAMP assay, first determination (n1), read-out: Primary assay EC50 GLP-1R n1
[12] = cAMP assay, second determination (n2), read-out: Primary assay EC50 GLP-1R n2
[13] = mean of n1 and n2, read-out: Mean pM GLP-1R

T1 sequence (P47871 26-477): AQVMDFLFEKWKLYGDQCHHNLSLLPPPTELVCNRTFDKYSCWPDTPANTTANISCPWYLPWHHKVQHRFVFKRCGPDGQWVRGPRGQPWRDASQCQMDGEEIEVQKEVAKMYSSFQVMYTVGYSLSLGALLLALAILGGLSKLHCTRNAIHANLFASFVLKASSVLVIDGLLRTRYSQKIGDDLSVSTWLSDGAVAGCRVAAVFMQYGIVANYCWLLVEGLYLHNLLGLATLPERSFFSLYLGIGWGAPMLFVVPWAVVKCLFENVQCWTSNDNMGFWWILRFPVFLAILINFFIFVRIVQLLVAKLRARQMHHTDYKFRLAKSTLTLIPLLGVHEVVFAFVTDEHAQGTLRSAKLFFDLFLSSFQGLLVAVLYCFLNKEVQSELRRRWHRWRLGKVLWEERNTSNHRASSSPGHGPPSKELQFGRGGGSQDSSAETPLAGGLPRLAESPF
T4 sequence (P43220 24-463): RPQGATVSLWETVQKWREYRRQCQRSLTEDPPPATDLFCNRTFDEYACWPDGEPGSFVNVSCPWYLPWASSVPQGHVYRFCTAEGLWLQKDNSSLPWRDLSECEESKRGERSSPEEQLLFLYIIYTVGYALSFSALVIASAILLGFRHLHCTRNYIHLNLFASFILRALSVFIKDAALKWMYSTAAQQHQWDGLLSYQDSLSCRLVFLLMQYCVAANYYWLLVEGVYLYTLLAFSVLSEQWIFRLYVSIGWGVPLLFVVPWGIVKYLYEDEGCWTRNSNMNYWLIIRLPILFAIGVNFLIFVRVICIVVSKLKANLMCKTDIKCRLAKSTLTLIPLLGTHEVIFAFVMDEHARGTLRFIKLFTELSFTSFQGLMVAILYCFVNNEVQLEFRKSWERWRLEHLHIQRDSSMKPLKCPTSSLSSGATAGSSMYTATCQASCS

EC50 [1, 4]	EC50 [1, 5]	EC50 [2, 6]	EC50 [2, 7]	EC50 (GLP-1R (INS1e assay); [8])	EC50 (GLP-1R (INS1e assay); [9])	EC50 (GLP-1R (INS1e assay); [10])	EC50 [3, 11]	EC50 [3, 12]	EC50 [3, 13]	Compound	EC50 ([1]; Primary assay EC50 Gluc-R (n1), first determination (n1))	EC50 ([1]; read-out: Primary assay EC50 Gluc-R (n2), second determination (n2))	EC50 ([2]; Primary assay EC50 GIP-R (n1), first determination (n1))	EC50 ([2]; read-out: Primary assay EC50 GIP-R (n2), second determination (n2))
≥ 25 nM	≥ 25.4 nM	≥ 25 nM	≥ 25.4 nM	4060 pM	1470 pM	6650 pM	58 pM	51.2 pM	55 pM	CC[C@H](C)[C@H](NC(=O)[C@](C)(Cc1ccccc1)NC(=O)[C@H](CCC(=O)O)NC(=O)[C@](C)(CCCCN)NC(=O)[C@H](C)NC(=O)[C@H](C)NC(=O)[C@H](CCC(=O)O)NC(=O)CNC(=O)[C@H](CCC(=O)O)NC(=O)[C@H](CC(C)C)NC(=O)[C@](C)(Cc1ccccc1)NC(=O)[C@H](CO)NC(=O)[C@](C)(CO)NC(=O)[C@@H](NC(=O)[C@H](CC(=O)O)NC(=O)[C@H](CO)NC(=O)[C@@H](NC(=O)[C@](C)(Cc1ccccc1)NC(=O)[C@H](CO)NC(=O)CNC(=O)[C@H](CCC(=O)O)NC(=O)C(C)(C)NC(=O)[C@@H](N)Cc1c[nH]cn1)[C@@H](C)O)C(C)C)C(=O)N[C@@H](C)C(=O)N[C@@](C)(Cc1ccccc1)C(=O)N[C@H](C(=O)N[C@H](C(=O)N[C@@H](CCCCNC(=O)COCCOCCNC(=O)COCCOCCNC(=O)CC[C@H](NC(=O)CCCCCCCCCCCCCCCCC(=O)O)C(=O)O)C(=O)NCC(=O)NCC(N)=O)C(C)C)C(C)C [compound 101]	–	–	–	–
≥ 25 nM	≥ 25.4 nM	≥ 25 nM	≥ 25.4 nM	385 pM	294 pM	476 pM	–	5.07 pM	–	CC[C@H](C)[C@H](NC(=O)[C@](C)(Cc1ccccc1)NC(=O)[C@H](CCC(=O)O)NC(=O)[C@](C)(CCCCN)NC(=O)[C@H](C)NC(=O)[C@H](C)NC(=O)[C@H](CCCCNC(=O)COCCOCCNC(=O)COCCOCCNC(=O)CC[C@H](NC(=O)CCCCCCCCCCCCCCCCC(=O)O)C(=O)O)NC(=O)CNC(=O)[C@H](CCC(=O)O)NC(=O)[C@H](CC(C)C)NC(=O)[C@](C)(Cc1ccccc1)NC(=O)[C@H](CO)NC(=O)[C@](C)(CO)NC(=O)[C@@H](NC(=O)[C@H](CC(=O)O)NC(=O)[C@H](CO)NC(=O)[C@@H](NC(=O)[C@](C)(Cc1ccccc1)NC(=O)[C@H](CO)NC(=O)CNC(=O)[C@H](CCC(=O)O)NC(=O)C(C)(C)NC(=O)[C@@H](N)Cc1c[nH]cn1)[C@@H](C)O)C(C)C)C(=O)N[C@@H](C)C(=O)N[C@@](C)(Cc1ccccc1)C(=O)N[C@H](C(=O)N[C@H](C(=O)N[C@@](C)(CCCCN)C(=O)NCC(=O)NCC(N)=O)C(C)C)C(C)C [compound 112] (H-H[Aib]EGS[αMeF]TSDV[αMeS]S[αMeF]LEGK([AEEA-AEEA-γGlu-C18 diacid])AA[αMeK]E[αMeF]IA[αMeF]VV[αMeK]GG-NH2; N-terminus assumed)	–	–	–	–
≥ 28 nM	≥ 28 nM	≥ 28 nM	≥ 28 nM	2610 pM	3890 pM	1330 pM	31 pM	17 pM	24 pM	CCCCCCCCCCCCCCCC(=O)N[C@@H](CCC(=O)NCCCC[C@H](NC(=O)[C@H](C)NC(=O)[C@H](C)NC(=O)[C@H](CCC(=O)O)NC(=O)CNC(=O)[C@H](CCC(=O)O)NC(=O)[C@H](CC(C)C)NC(=O)[C@](C)(Cc1ccccc1)NC(=O)[C@H](CO)NC(=O)[C@](C)(CO)NC(=O)[C@@H](NC(=O)[C@H](CC(=O)O)NC(=O)[C@H](CO)NC(=O)[C@@H](NC(=O)[C@](C)(Cc1ccccc1)NC(=O)[C@H](CO)NC(=O)CNC(=O)[C@H](CCC(=O)O)NC(=O)C(C)(C)NC(=O)[C@@H](N)Cc1c[nH]cn1)[C@@H](C)O)C(C)C)C(=O)N[C@@H](CCC(=O)O)C(=O)N[C@@](C)(Cc1ccccc1)C(=O)N[C@H](C(=O)N[C@@H](C)C(=O)N[C@@](C)(Cc1ccccc1)C(=O)N[C@H](C(=O)N[C@H](C(=O)N[C@@](C)(CCCCN)C(=O)NCC(=O)NCC(N)=O)C(C)C)C(C)C)[C@@H](C)CC)C(=O)O [compound 80]	–	–	–	–

Second part, the compound before the results:

Compound	EC50 [1, 4]	EC50 [1, 5]	EC50 [2, 6]	EC50 [2, 7]	EC50 (GLP-1R (INS1e assay); [8])	EC50 (GLP-1R (INS1e assay); [9])	EC50 (GLP-1R (INS1e assay); [10])	EC50 [3, 11]	EC50 [3, 12]	EC50 [3, 13]	EC50 ([1]; Primary assay EC50 Gluc-R (n1), first determination (n1))	EC50 ([1]; read-out: Primary assay EC50 Gluc-R (n2), second determination (n2))	EC50 ([2]; Primary assay EC50 GIP-R (n1), first determination (n1))	EC50 ([2]; read-out: Primary assay EC50 GIP-R (n2), second determination (n2))
CCCCCCCCCCCCCCCC(=O)N[C@@H](CCC(=O)NCCCC[C@H](NC(=O)[C@H](C)NC(=O)[C@@H](NC(=O)[C@](C)(Cc1ccccc1)NC(=O)[C@H](CCC(=O)O)NC(=O)[C@](C)(CCCCN)NC(=O)[C@H](C)NC(=O)[C@H](C)NC(=O)[C@H](CCC(=O)O)NC(=O)CNC(=O)[C@H](CCC(=O)O)NC(=O)[C@H](CC(C)C)NC(=O)[C@](C)(Cc1ccccc1)NC(=O)[C@H](CO)NC(=O)[C@](C)(CO)NC(=O)[C@@H](NC(=O)[C@H](CC(=O)O)NC(=O)[C@H](CO)NC(=O)[C@@H](NC(=O)[C@](C)(Cc1ccccc1)NC(=O)[C@H](CO)NC(=O)CNC(=O)[C@H](CCC(=O)O)NC(=O)C(C)(C)NC(=O)[C@@H](N)Cc1c[nH]cn1)[C@@H](C)O)C(C)C)[C@@H](C)CC)C(=O)N[C@H](C(=O)N[C@H](C(=O)N[C@@](C)(CCCCN)C(=O)NCC(=O)NCC(N)=O)C(C)C)C(C)C)C(=O)O [compound 75]	≥ 28 nM	≥ 28 nM	≥ 28 nM	≥ 28 nM	56 pM	49.7 pM	63 pM	2 pM	1.4 pM	1.7 pM	–	–	–	–
CC[C@H](C)[C@H](NC(=O)[C@](C)(Cc1ccccc1)NC(=O)[C@H](CCC(=O)O)NC(=O)[C@H](CCCCNC(=O)COCCOCCNC(=O)CCCCCCCCCCCOc1ccc(C(=O)O)cc1)NC(=O)[C@H](C)NC(=O)[C@H](C)NC(=O)[C@H](CCC(=O)O)NC(=O)CNC(=O)[C@H](CCC(=O)O)NC(=O)[C@H](CC(C)C)NC(=O)[C@](C)(Cc1ccccc1)NC(=O)[C@H](CO)NC(=O)[C@](C)(CO)NC(=O)[C@@H](NC(=O)[C@H](CC(=O)O)NC(=O)[C@H](CO)NC(=O)[C@@H](NC(=O)[C@](C)(Cc1ccccc1)NC(=O)[C@H](CO)NC(=O)CNC(=O)[C@H](CCC(=O)O)NC(=O)C(C)(C)NC(=O)[C@@H](N)Cc1c[nH]cn1)[C@@H](C)O)C(C)C)C(=O)N[C@@H](C)C(=O)N[C@@](C)(Cc1ccccc1)C(=O)N[C@H](C(=O)N[C@H](C(=O)N[C@@](C)(CCCCN)C(=O)NCC(=O)NCC(N)=O)C(C)C)C(C)C [compound 143]	–	–	–	–	34 pM	45.1 pM	22.7 pM	12 pM	5.2 pM	8.6 pM	≥ 27 nM	≥ 27 nM	≥ 27 nM	≥ 27 nM
CCCCCCCCCCCCCCCC(=O)N[C@@H](CCC(=O)NCCCC[C@H](NC(=O)[C@@H](NC(=O)[C@@H](NC(=O)[C@](C)(Cc1ccccc1)NC(=O)[C@H](C)NC(=O)[C@@H](NC(=O)[C@](C)(Cc1ccccc1)NC(=O)[C@H](CCC(=O)O)NC(=O)[C@](C)(CCCCN)NC(=O)[C@H](C)NC(=O)[C@H](C)NC(=O)[C@H](CCC(=O)O)NC(=O)CNC(=O)[C@H](CCC(=O)O)NC(=O)[C@H](CC(C)C)NC(=O)[C@](C)(Cc1ccccc1)NC(=O)[C@H](CO)NC(=O)[C@](C)(CO)NC(=O)[C@@H](NC(=O)[C@H](CC(=O)O)NC(=O)[C@H](CO)NC(=O)[C@@H](NC(=O)[C@](C)(Cc1ccccc1)NC(=O)[C@H](CO)NC(=O)CNC(=O)[C@H](CCC(=O)O)NC(=O)C(C)(C)NC(=O)[C@@H](N)Cc1c[nH]cn1)[C@@H](C)O)C(C)C)[C@@H](C)CC)C(C)C)C(C)C)C(=O)NCC(=O)NCC(N)=O)C(=O)O [compound 72]	≥ 28 nM	≥ 28 nM	≥ 28 nM	≥ 28 nM	6160 pM	4260 pM	8070 pM	46 pM	52 pM	49 pM	–	–	–	–
